For experiment [1], the target named is T1, Beta-secretase 1 (Homo sapiens, UniProt P56817). Put plainly: Tested for inhibition of Beta-secretase 1 (BACE 1) expressed in insect cell using baculovirus.
A further experiment has as its target T2, Renin (Homo sapiens, UniProt P00797).
T2 sequence (P00797 whole entry): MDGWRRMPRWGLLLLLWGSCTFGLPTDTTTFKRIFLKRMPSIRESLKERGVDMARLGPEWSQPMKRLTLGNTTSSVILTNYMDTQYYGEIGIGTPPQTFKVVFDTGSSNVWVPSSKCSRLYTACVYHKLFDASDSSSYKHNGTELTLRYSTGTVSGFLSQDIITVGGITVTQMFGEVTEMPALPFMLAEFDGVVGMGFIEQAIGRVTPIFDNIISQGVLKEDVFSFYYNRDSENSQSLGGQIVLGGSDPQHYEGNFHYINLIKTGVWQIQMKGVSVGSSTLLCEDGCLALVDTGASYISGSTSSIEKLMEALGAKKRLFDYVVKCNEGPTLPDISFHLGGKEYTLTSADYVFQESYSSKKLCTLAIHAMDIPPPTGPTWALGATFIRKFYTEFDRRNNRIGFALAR
Put plainly: Compound was tested for inhibition of human renin.

A further experiment deals with Cathepsin D (Homo sapiens, UniProt P07339). Briefly: Compound was tested for inhibition of cathepsin D.
Cathepsin D, sequence (P07339 65-162 limits assumed): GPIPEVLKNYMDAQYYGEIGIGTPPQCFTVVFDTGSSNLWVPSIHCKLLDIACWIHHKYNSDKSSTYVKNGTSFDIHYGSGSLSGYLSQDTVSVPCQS
Cathepsin D, sequence (P07339 169-412 limits assumed): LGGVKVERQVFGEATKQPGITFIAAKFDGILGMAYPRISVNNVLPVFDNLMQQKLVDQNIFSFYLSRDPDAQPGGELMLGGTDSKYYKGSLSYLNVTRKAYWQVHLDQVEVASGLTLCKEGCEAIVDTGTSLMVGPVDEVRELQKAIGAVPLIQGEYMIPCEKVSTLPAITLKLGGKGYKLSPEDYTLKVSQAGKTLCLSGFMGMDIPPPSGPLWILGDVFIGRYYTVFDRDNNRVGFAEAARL
Experiment [2] concerns the target T1, Beta-secretase 1. Briefly: Compound (>1 mM ) was tested for inhibition of Beta-secretase 1 (BACE 1) expressed in insect cell using baculovirus; Not inhibited.

T1 sequence (P56817 whole entry): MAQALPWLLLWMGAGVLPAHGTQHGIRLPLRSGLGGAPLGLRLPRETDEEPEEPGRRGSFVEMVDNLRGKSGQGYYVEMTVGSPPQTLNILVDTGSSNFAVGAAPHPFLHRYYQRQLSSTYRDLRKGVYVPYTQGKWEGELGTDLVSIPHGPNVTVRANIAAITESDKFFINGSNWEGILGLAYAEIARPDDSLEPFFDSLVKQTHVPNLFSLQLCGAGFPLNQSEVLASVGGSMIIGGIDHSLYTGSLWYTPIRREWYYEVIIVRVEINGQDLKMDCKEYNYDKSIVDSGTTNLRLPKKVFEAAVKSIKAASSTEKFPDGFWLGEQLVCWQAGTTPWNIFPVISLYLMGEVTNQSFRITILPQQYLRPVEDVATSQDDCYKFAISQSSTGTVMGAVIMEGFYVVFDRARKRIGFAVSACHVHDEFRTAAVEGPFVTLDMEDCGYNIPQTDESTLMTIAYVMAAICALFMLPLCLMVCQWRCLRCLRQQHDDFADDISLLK

By Ki is commonly meant the dissociation constant of the complex between target and ligand, obtained from inhibition or displacement. A higher Ki goes with lower affinity. Regarding `CC(=O)OCC[C@H](C[C@H](O)[C@H](Cc1ccccc1)NC(=O)C[C@H](NC(=O)CC(C)C)C(=O)O)C(=O)NCC(C)C`, the Ki on Beta-secretase 1 [1] was 2.7 µM; at Renin, 1.9 µM; on Cathepsin D it was 2.2 µM.

For `CC(C)CC(=O)N[C@H](C(=O)N[C@H](C(=O)N[C@@H](CC(C)C)[C@@H](O)CC(=O)N[C@@H](C)C(=O)N[C@@H](CC(C)C)[C@@H](O)CC(=O)O)C(C)C)C(C)C`, on Beta-secretase 1 [2], the Activity entry was “No inhibition”.

`CC(C)CNC(=O)[C@H](CCC(=O)O)C[C@H](O)[C@H](Cc1ccccc1)NC(=O)C[C@H](NC(=O)CC(C)C)C(=O)O`: the Ki on Beta-secretase 1 [1] came out at 1.7 µM; at Renin it was 73.6 µM; at Cathepsin D it was 79.7 µM.

For the compound `CC(C)CNC(=O)[C@H](CCO)C[C@H](O)[C@H](Cc1ccccc1)NC(=O)C[C@H](NC(=O)CC(C)C)C(=O)O`, the Ki at Beta-secretase 1 [1] came to 1.9 µM; at Renin, 10.9 µM; at Cathepsin D, 12.5 µM.

`CCC[C@H](C[C@H](O)[C@H](Cc1ccccc1)NC(=O)C[C@H](NC(=O)CC(C)C)C(=O)O)C(=O)NCC(C)C`: the values for the Ki at Beta-secretase 1 [1], on Renin and at Cathepsin D were 69.5 µM, 24.4 µM and 28 µM, respectively.

The values above are taken from ChEMBL document CHEMBL1147418, “Rational design and synthesis of selective BACE-1 inhibitors” (Bioorg Med Chem Lett, 2004).
